Values quoted from earlier work in US20240423896A1, “METHOD FOR IMPROVING THE TACTILE SENSATION OF DYED KERATINOUS FIBRES, IN PARTICULAR HUMAN HAIR” (HENKEL AG & CO. KGAA, priority 2021, published 2024).

Details: 25° C.

## Nc1cc(S(=O)(=O)[O-])cc2cc(S(=O)(=O)[O-])c(N=Nc3ccccc3)c(O)c12.[Na+].[Na+] [Acid Red 33, disodium salt of 5-amino-4-hydroxy-3-(phenylazo)-naphthalene-2,7-disulfonate]
  solubility in water: 2500 µg/mL

## O=C([O-])c1c(Cl)c(Cl)c(Cl)c(Cl)c1-c1c2cc(Br)c(=O)c(Br)c-2oc2c(Br)c([O-])c(Br)cc12.[Na+].[Na+] [Acid Red 92, disodium salt of 3,4,5,6-tetrachloro-2-(1,4,5,8-tetrabromo-6-hydroxy-3-oxanthene-9-yl) benzoic acid]
  solubility in water: greater than 10 g/L

## O=C([O-])C1=NN(c2ccc(S(=O)(=O)[O-])cc2)C(=O)C1N=Nc1ccc(S(=O)(=O)[O-])cc1.[Na+].[Na+].[Na+] (centres unmarked) [Acid Yellow 23, trisodium salt of 4,5-dihydro-5-oxo-1-(4-sulfophenyl)-4-((4-sulfophenyl)azo)-1H-pyrazole-3-carboxylic acid]
  solubility in water (in words): readily soluble in water

## CCN(Cc1cccc(S(=O)(=O)[O-])c1)c1ccc(C(=C2C=CC(=[N+](CC)Cc3cccc(S(=O)(=O)[O-])c3)C=C2)c2ccccc2S(=O)(=O)[O-])cc1.[Na+].[Na+] [Acid Blue 9, disodium salt of 2-({4-[N-ethyl(3-sulfonatobenzyl]amino]phenyl}{4-(N-ethyl(3-sulfonatobenzyl)imino]-2,5-cyclohexadien-1-ylidene}methyl)-benzenesulfonate]
  water solubility: more than 20 wt. %

## O=S(=O)([O-])c1ccc(N=Nc2c(O)ccc3ccccc23)cc1.[Na+] [Acid Orange 7, sodium salt of 4-[(2-hydroxy-1-naphthyl)azo]benzene sulphonate]
  solubility in water: more than 7 g/L
